{"source": "patent US20030069232A1", "about": "“Topical treatment of ocular hypertension, glaucoma, ischemic retinopathy and age-related macular degeneration with ophthalmic formulation of dopamine antagonists” (priority 1999, published 2003)", "tested_on": "New Zealand white rabbit eyes", "test": "Eye irritation in rabbit eyes (Draize Test)", "format": "in vivo", "settings": "50 μl of 1% droperidol; slit lamp biomicroscope", "procedure": "50 μl of 1% droperidol was used to test for eye irritation in New Zealand white rabbit eyes using the standard procedure of the Draize Test. […] Eyedrops were instilled in the eyes, and the responses of the eyes were examined with a slit lamp biomicroscope.", "data": [{"smiles": "O=C(CCCN1CC=C(n2c(=O)[nH]c3ccccc32)CC1)c1ccc(F)cc1", "note": "[droperidol, Droperidol]", "values": [{"measurement": "Eye irritation", "result": "either absent or insignificant"}]}]}
